Assay results published in EP0114002B1, “Benzothiopyrano(4,3,2,-cd)indazoles, their pharmaceutical compositions and methods for their production” (WARNER-LAMBERT COMPANY, priority 1983, dated 1984).
Read-outs that look alike come from different tables or passages of the source.

Legend:
[1] = test system: L1210 cells; assay: L1210 murine leukemia cell growth inhibition in vitro; assay type: cell-based; conditions: Mus musculus, 72 h
Protocol: Another test protocol uses L1210 cells, a murine leukemia cell line, grown in RPMI 1640 supplemented with 5% fetal bovine serum and gentamicin ([…]). Drug dilutions are prepared in the appropriate solvent and 20 µl of each dilution are added to 24-well Linbro tissue culture plates, followed by the addition of 2.0 ml of cell suspension containing 3 x 10^4 cells per ml. Solvent and medium controls are included in each test. After incubation at 37°C forthree days in 5% C02, the contents of each well are removed and the cells counted in a ZBI Coulter counter. Percent growth are calculated relative to the controls and the levels of drug activity are expressed as ID50 in moles per liter.

[2] = test system: HCT-8 cells; assay: in vitro proliferating human colon adenocarcinoma (HCA) cell screen; assay type: cell-based
Protocol: One test protocol is the in vitro proliferating human colon adenocarcinoma (HCA) cell screen. In this test, HCT-8 cells (HCA cell line received from Yale University) are trypsinized using trypsin-EDTA. A single cell suspension is achieved by passing the cells through a 26 gauge needle with a 20 cc syringe. A cell suspension is prepared using RPMI 1640 + 10% FCS + 50) g/ml gentamicin sulfate with a cell concentration of approximately 30,000 cells/ml. The cell suspension is dispensed in Linbro 24-well plates; 1 ml/well. The plates are incubated for approximately 48 hours at 37°C in a 5% C02 atmosphere. At this time test compounds are added in the appropriate concentration. Five µl of the 200 µg/ml stock solution is added to each well in primary test. Ten µl of the appropirate dilution is added to each well for a titration test. The plates are re-incubated an additional 60 to 65 hours at 37°C in a 5% C02 atmosphere. The cells are lysed using a mix of cationic surfactant, glacial acetic acid, and sodium chloride. Two ml of the lysed cell suspension from each well is added to 8 ml of diluent. The number of nuclei is determined using a Coulter counter (ZBI model), and a percent growth for each drug concentration is calculated. From this, an ID50 molar concentration of a compound (that results in 50% inhibition of growth) is determined.

[3] = test system: lymphocytic leukemia P388; assay: in vivo lymphocytic leukemia P388 test; design: species or system mice; conditions: for response vs control in vivo at 6.25 mg/kg: Dose 6.25 mg/kg intraperitoneally once daily for five days; for response vs control in vivo at 12.5 mg/kg: Dose 12.50 mg/kg intraperitoneally once daily for five days; for response vs control in vivo at 25 mg/kg: Dose 25.00 mg/kg intraperitoneally once daily for five days; for response vs control in vivo at 50 mg/kg: Dose 50.00 mg/kg intraperitoneally once daily for five days; for P388 in vivo Cures: remark printed beside T/C × 100
Protocol: Another test protocol is the in vivo lymphocytic leukemia P388 test. The animals used are either male or female CD2F, mice. There are six or seven animals per test group. The tumor transplant is by intraperitoneal injection of dilute ascitic fluid containing cells of lymphocytic leukemia P388. The test compounds are administered intraperitoneally once daily for five consecutive days at various doses following tumor inoculation. The animals are weighed and survivors are recorded on a regular basis for 30 days. A compound is designated "toxic" if, at a given dose, all animals died prior to four days after the first injection of drug. A ratio of survival time for treated (T)/control (C) animals is calculated. A criterion for efficacy is a ratio T/C times 100 greater than or equal to 125. See Cancer Chemotherapy Reports, Part 3, 3; 1 (1972) for a comprehensive discussion of the protocol.

[4] = test system: Aerobacter aerogenes 0126; assay: in vitro antibacterial/antifungal (ABF) agar-disk diffusion test; assay type: cell-based; conditions: Klebsiella aerogenes, read-out: ABF Zone Diameter (cont. in mg/ml) A. Aero-genes; for zone of inhibition at 3000 µg/mL: 3 mg/ml; for zone of inhibition at 500 µg/mL: 0.5 mg/ml
Protocol: (§1) Still another test protocol is the in vitro antibacterial/antifungal (ABF) test. Compounds are tested for antimicrobial activity in an agar-disk diffusion assay, a standard microbiological technique for testing antibiotics'. After incubation of each culture with a test compound, a zone of inhibition is determined. The zone diameter (mm) of active compounds ranges from a minimum of 13.5 mm to as high as 60 mm, with a greater diameter reflecting higher activity. For convenience, values are reported for two gram-negative bacteria (Aerobacter aerogenes 0126 and Escherichia coli 04863), two gram-positive bacteria (Bacillus subtilis 04555 and Streptococcus faecalis 05045 utilizing AM-09 medium), and one mycelial fungus (Penicillium avellaneum M2988).

[5] = test system: Bacillus subtilis 04555; assay: as above; assay type: cell-based; conditions: read-out: ABF Zone Diameter (cont. in mg/ml) B. Sub-tilis; for zone of inhibition at 3000 µg/mL: 3 mg/ml; for zone of inhibition at 1000 µg/mL: 1 mg/ml; for zone of inhibition at 500 µg/mL: 0.5 mg/ml
Protocol: as §1

[6] = test system: Escherichia coli 04863; assay: as above; assay type: cell-based; conditions: read-out: ABF Zone Diameter (cont. in mg/ml) E. Coli; for zone of inhibition at 3000 µg/mL: 3 mg/ml
Protocol: as §1

[7] = test system: Penicillium avellaneum M2988; assay: as above; assay type: cell-based; conditions: Hamigera avellanea, read-out: ABF Zone Diameter (cont. in mg/ml) P. Avell-aneum; for zone of inhibition at 3000 µg/mL: 3 mg/ml
Protocol: as §1

[8] = test system: Streptococcus faecalis 05045; assay: as above; assay type: cell-based; conditions: Enterococcus faecalis, AM-09 medium, read-out: ABF Zone Diameter (cont. in mg/ml) S. Fae-calis; for zone of inhibition at 3000 µg/mL: 3 mg/ml; for zone of inhibition at 1000 µg/mL: 1 mg/ml
Protocol: as §1

[9] = Table 2, three days incubation, read-out: L1210 in vitro IC50
[10] = Table 2, 60 to 65 hours with compound, read-out: HCA—3 in vitro IC50
[11] = Mus musculus, P388, ip, 120 h, read-out: P388 in vivo T/C × 100
[12] = Table 1, three days incubation, 50% inhibition of growth, read-out: L1210 in vitro ID50
[13] = Table 1, 60 to 65 hours with compound, 50% inhibition of growth, read-out: HCA—3 in vitro ID50

| Structure (SMILES) | response vs control in vivo at 12.5 mg/kg [3, 11] [%] | response vs control in vivo at 25 mg/kg [3, 11] [%] | response vs control in vivo at 50 mg/kg [3, 11] [%] | zone of inhibition at 3000 µg/mL [4] [mm] | zone of inhibition at 3000 µg/mL [5] [mm] | zone of inhibition at 3000 µg/mL [6] [mm] | zone of inhibition at 3000 µg/mL [7] [mm] | IC50 [1, 12] [nM] | IC50 [2, 13] [nM] | zone of inhibition at 500 µg/mL [4] [mm] | zone of inhibition at 3000 µg/mL [8] [mm] | zone of inhibition at 1000 µg/mL [8] [mm] | also measured |
| --- | --- | --- | --- | --- | --- | --- | --- | --- | --- | --- | --- | --- | --- |
| CCN(CC)CCn1nc2c3c(c(NCCNCCO)ccc31)Sc1c(O)ccc(O)c1-2 [2-[2-(Diethylamino)ethyl]-5-[[2-[(2-hydroxyethyl)amino]ethyl]amino]-2H[1]benzothiopyrano[4,3,2-cdlindazole-7,10-diol] | 118 | 121 | 138 | 14 | 0 | 0 | 0 |  |  |  |  |  | IC50 [1, 9]: > 1500 nM; IC50 [2, 10]: > 1500 nM; response vs control in vivo at 6.25 mg/kg [3, 11]: 123%; zone of inhibition at 500 µg/mL ([8]; 0.5 mg/ml): 15 mm |
| CN(C)CCCn1nc2c3c(c(N)ccc31)Sc1ccccc1-2 [CH2CH2CH2N(CH3)2 / NH2] |  |  | 121 |  | 0 | 15 | 16 | 2000 | 1800 | 16 | 15 |  | response vs control in vivo at 100 mg/kg ([3]; Mus musculus, P388, ip, 120 h, Dose 100.00 mg/kg intraperitoneally once daily for five days, read-out: P388 in vivo T/C × 100): 182%; response vs control in vivo at 200 mg/kg ([3]; Mus musculus, P388, ip, 120 h, Dose 200.00 mg/kg intraperitoneally once daily for five days, survival time treated/control, read-out: P388 in vivo T/C × 100): 169% |
| CCN(CC)CCn1nc2c3c(c(N=CN(C)C)ccc31)Sc1ccccc1-2 [CH2CH2N(C2H5)2 / N=CHN(CH3)2, N'-[2-(2-(Diethylamino)ethyl]-2H[1]benzothiopyrano[4,3,2-cd]indazol-5-yl]-N,N-dimethyl-methanimidamide] |  | 145 | 206 | 0 |  | 0 | 16 | 100 | 240 |  | 0 |  | zone of inhibition at 1000 µg/mL [5]: 16 mm |
| CCN(CC)CCn1nc2c3c(c(N)ccc31)Sc1c(O)ccc(O)c1-2 [CH2CH2N(C2H5)2 / NH2 / 7,10-(OH)2, 5-amino-2-[2-(diethylamino)ethyl]-2H[1]-benzothiopyrano[4;3,2-cd]indazole-7,10-diol] |  |  |  | 0 | 0 | 0 | 0 |  |  |  | 19 |  | IC50 [1, 9]: > 2200 nM; IC50 [2, 10]: > 2200 nM |
| CCN(CC)CCn1nc2c3c(c(N)ccc31)Sc1ccccc1-2 [CH2CH2N(C2H5)2 / NH2, 5-Amino-N,N-diethyl-2H[1]benzothiopyrano[4,3,2-cd]indazole-2-ethanamine] | 144 | 162 |  | 0 | 0 | 0 |  | 130 | 1100 |  |  | 14 | zone of inhibition at 1000 µg/mL ([7]; 1 mg/ml): 14 mm |
| CCN(CC)CCNc1ccc2c3c(nn2CCN(CC)CC)-c2ccccc2Sc13 [CH2CH2N(C2H5)2 / NHCH2CH2N(C2H5)2, 5-[[2-(Diethylamino)ethyl]amino]-N,N-diethyl-2H[1]-benzothiopyrano[4,3,2-cd]indazofe-2-ethanamine] |  | 155 |  |  |  |  | 17 | 140 | 450 | 14 | 15 |  | zone of inhibition at 100 µg/mL ([5]; 0.1 mg/ml): 15 mm; zone of inhibition at 100 µg/mL ([6]; 0.1 mg/ml): 18 mm |
| CCN(CC)CCn1nc2c3c(c(NCCN)ccc31)Sc1ccccc1-2 [CH2CH2N(C2H5)2 / NHCH2CH2NH2, N-[2-[2-(Diethylamino)ethyl]-2H[1]benzothiopyrano[4,3,2-cd]indazol-5-yl]-1,2-ethanediamine] | 297 | 148 |  |  |  | 0 | 0 | 46 | 97 | 19 |  | 15 | P388 in vivo Cures ([3]; Dose 12.50 mg/kg): Cures; P388 in vivo Cures ([3]; Dose 25.00 mg/kg): Cures; response vs control in vivo at 3.12 mg/kg ([3]; Mus musculus, P388, ip, 120 h, Dose 3.12 mg/kg intraperitoneally once daily for five days, read-out: P388 in vivo T/C × 100): 178%; response vs control in vivo at 6.25 mg/kg [3, 11]: 215%; zone of inhibition at 500 µg/mL [5]: 20 mm |
| NCCn1nc2c3c(c(NCCNCCO)ccc31)Sc1ccccc1-2 [CH2CH2NH2 / NHCH2NHCH2CH2OH, 2-[[2-[[2-(2-aminoethyl)-2H[1]benzothiopyrano[4,3,2-cd]indazol-5-yl]amino]ethyl]amino]ethanol] |  |  |  |  |  | 0 | 0 | 24 | 88 | 15 | 0 |  | zone of inhibition at 500 µg/mL [5]: 15 mm |
| O=C1OCCN1CCNc1ccc2c3c(nn2CCNCCO)-c2ccccc2Sc13 [CH2CH2NHCH0H2OH /] |  |  |  |  |  | 15 | 0 | 570 | 1400 |  |  | 17 | zone of inhibition at 1000 µg/mL ([4]; 1 mg/ml): 14 mm; zone of inhibition at 1000 µg/mL [5]: 16 mm |
